Patent US20240279302A1, “OLFACTORY RECEPTOR EXPRESSING METHOD AND RESPONSE MEASUREMENT METHOD” (Kao Corporation, priority 2021, published 2024)

T1: OR2T11 (Homo sapiens, UniProt Q8NH01)
T1 sequence (Q8NH01 1-316): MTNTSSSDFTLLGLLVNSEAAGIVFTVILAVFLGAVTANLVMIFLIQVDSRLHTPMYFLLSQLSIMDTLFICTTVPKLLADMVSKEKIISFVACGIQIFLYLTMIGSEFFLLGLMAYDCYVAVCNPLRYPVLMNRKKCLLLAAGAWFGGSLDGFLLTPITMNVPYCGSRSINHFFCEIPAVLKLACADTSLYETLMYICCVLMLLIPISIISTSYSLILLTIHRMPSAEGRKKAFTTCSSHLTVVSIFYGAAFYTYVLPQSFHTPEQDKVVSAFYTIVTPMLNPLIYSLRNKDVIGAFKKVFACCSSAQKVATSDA

B1: consensus OR4E2: consensus olfactory receptor polypeptide (protein)
chain: MDSLNQTRVTEFVFLGLTDNWVLEILFFMAFSAIYVLTLLGNILIIVTIVFTPRLHTPMYFFLSNLSFIDICHSSVTVPKMLEGLLLERKTISFDNCIAQLFFLHLFACAEIFLLTIMAYDRYVAICTPLHYPNVMNMRVCVQLVFALWLGGTVHSLVQTFLTIRLPYCGPNIIDSYFCDVPPVIKLACTDTYLTGMLIVSNSGTISLTCFLALVTSYTVILVSLRKQSAEGRRKALSTCSAHFMVVALFFGPCIFIYTRPDTSFSIDKVVSVFYTVVTPLLNPLIYTLRNEEVKSAMKQLRQRQVFFTKSY
modifications: OR4E2 consensus-c
notes: consensus olfactory receptor polypeptide
B2: consensus OR2T4: consensus olfactory receptor polypeptide (protein)
chain: MANITWMANHTGWSDFILVGLFRQSKHPALLCVVIFVVFLMALSGNAVLILLIHSDAHLHTPMYFFISQLSLMDMMYISVTVPKMLLDQVMGVNKISAPECGMQMFLYVTLAGSEFFLLATMAYDRYVAICHPLRYPVLMNHRVCLFLASGCWFLGSVDGFTFTPITMTFPFCRSREIHHFFCEVPAVLKLSCSDTSLYEIFMYLCCVLMLLIPVTVISSSYLFILLTIHRMNSAEGRKKAFATCSSHMTVVILFYGAAIYTYMLPSSYHTPEKDMMVSVFYTILTPVLNPLIYSLRNKDVMGALKKMLNVGPVFQETMK
modifications: OR2T4 consensus-c
notes: as for B1
B3: consensus OR4K17: consensus olfactory receptor polypeptide (protein)
chain: MESMELLNQSQVSEFILLGLTSSQDIQFLLFALFSVIYVVTVLGNLLIVVTVFNTPNLNTPMYFLLGNLSFVDMTLASFATPKMILNLVKKQKTISFAGCFTQIFLLHLLGGVEMVLLVSMAYDRYVAICKPLHYMTIMNKKVCVLLVVTSWLLGLLHSGLQIPFVVNLPFCGPNVVDSIFCDLPLVTKLACIDTYFVQIVIVANSGMISLSCFIILLISYSLILITIRNHSSTGQSKARSTLTAHITVVILFFGPCIFIYIWPFSNHSVDKFLAVFYTIITPILNPIIYTLRNKEMKTAMKKLWRAFVNSREDT
modifications: OR4K17 consensus-c
notes: as for B1
B4: OR4S2: original human olfactory receptor OR4S2, SEQ ID NO: 18 (protein, listed as Homo sapiens)
chain: MEKINNVTEFIFWGLSQSPEIEKVCFVVFSFFYIIILLGNLLIMLTVCLSNLFKSPMYFFLSFLSFVDICYSSVTAPKMIVDLLAKDKTISYVGCMLQLFGVHFFGCTEIFILTVMAYDRYVAICKPLHYMTIMNRETCNKMLLGTWVGGFLHSIIQVALVVQLPFCGPNEIDHYFCDVHPVLKLACTETYIVGVVVTANSGTIALGSFVILLISYSIILVSLRKQSAEGRRKALSTCGSHIAMVVIFFGPCTFMYMRPDTTFSEDKMVAVFYTIITPMLNPLIYTLRNAEVKNAMKKLWGRNVFLEAKGK
B5: consensus OR2T1: consensus olfactory receptor polypeptide (protein)
chain: MEEYNTSSTDFTFMGLFNRKETSGLLFAIISIIFFTALMANGVMIFLIQTDLRLHTPMYFLLSHLSFIDMMYISTIVPKMLVDYLLGQRTISFVGCTAQHFLYLTLVGAEFFLLGLMAYDRYVAICNPLRYPVLMSRRVCWMIIAGSWFGGSLDGFLLTPITMSFPFCNSREINHFFCEAPAVLKLACADTALYETVMYVCCVLMLLIPFSVVIASYARILTTVHRMSSVEGRKKAFATCSSHMTVVTLFYGAAMYTYMLPHSYHKPAQDKVFSVFYTILTPMLNPLIYSLRNKDVTGALKRALGRFKGPQRVSGGVF
modifications: OR2T1 consensus-c
notes: as for B1
B6: consensus OR2T29: consensus olfactory receptor polypeptide (protein)
chain: MANITWMANHTGRSDFILVGLFSQSKHPALLCVVIFVVFLMALSGNAILILLIHSDAHLHTPMYFFISQLSLMDVMYISVTVPKMLMDQVMGVNKISAPECGMQMFLYLTLAGSEFFLLAAMAYDRYVAICHPLRYPVLMNHRVCLLLVSGCWFLGSVDGFMLTPITMTFPFCRSREIHHFFCEVPAVMKLSCSDTSLYETLMYLCCVLMLLIPVTVISSSYSFILLTIHRMNSAEGRKKAFATCSSHMTVVILFYGAAVYTYMLPSSYHTPEKDMMVSVFYTILTPVLNPLIYSLRNKDVTGALKKMLNVGSVFQETIK
modifications: OR2T29 consensus-c
notes: as for B1
B7: consensus OR2T5: consensus olfactory receptor polypeptide (protein)
chain: MANITWMANHTGKSDFILVGLFSQSKHPALLCVVIFVVFLMALSGNAILILLIHSDAHLHTPMYFFISQLSLMDVMYISVTVPKMLMDQVMGVNKISAPECGMQMFLYLTLAGSEFFLLAAMAYDRYVAICHPLRYPVLMNHRVCLLLASGCWFLGSVDGFMLTPITMTFPFCRSREIHHFFCEVPAVMKLSCSDTSLYETLMYLCCVLMLLIPVTVISSSYSFILLTIHRMNSAEGRKKAFATCSSHMTVVILFYGAAVYTYMLPSSYHTPEKDMMVSVFYTILTPVLNPLIYSLRNKDVTGALKKMLNVGSVFQETIK
modifications: OR2T5 consensus-c
notes: as for B1
B8: consensus OR2T27: consensus olfactory receptor polypeptide (protein)
chain: MEWGNYSMYADFVLLGLFSNTRFPWLLFALILLVFVISIASNTVMIILIHIDSRLHTPMYFLLSQLSLMDILYISTIVPKMLVDQVMGQRAISFAGCTAQHFLYLTLAGAEFFLLGLMSYDRYVAICNPLRYPVLMSRKVCLLIVAAAWLGGSIDGFLLTPVTMQFPFCASREINHFFCEVPALLKLSCTDTSAYETAMYVCCIMMLLIPFSVISASYTRILITVYRMSEAEGRRKAVATCSSHMVVVSLFYGAAMYTYVLPHSYHTPEQDKAVSAFYTILTPMLNPLIYSLRNKDVTGALQKALGRCVSSGKVTTF
modifications: OR2T27 consensus-c
notes: as for B1

How the values were obtained:
[1] = biological target: T1, OR2T11; details: Block E et al., Nat. Prod. Rep. 2017; cited from earlier work
[2] = test system: HEK293 cells expressing olfactory receptor; experiment: Luciferase assay: signal to 100 μM sulfur compounds in the presence or absence of a copper ion; type: cell-based, human; details: 100 μM odorant
Procedure: A reaction solution as to each consensus olfactory receptor prepared in Examples described above was prepared according to the composition shown in Table 4, left standing for 20 minutes in a clean bench, and then added to each well of a 96-well plate (Becton, Dickinson and Company). The original olfactory receptor was used as to OR4S2. Composition shown in Table 20 was used as to OR11H2 and OR4E2. Subsequently, 100 μL of HEK293 cells suspended in DMEM (Nacalai Tesque, Inc.) was inoculated at 2×10^5 cells/cm^2 to each well, and cultured for 24 hours in an incubator kept at 37° C. and 5% CO2. Cells expressing no olfactory receptor (Mock) were provided as a control.
[…] Under a copper ion addition condition, the test substance solution was adjusted to contain 30 μM copper(II) chloride (FUJIFILM Wako Pure Chemical Corp.) in addition to the odorant. The cells were cultured for 4 hours in a CO2 incubator and the luciferase gene was expressed sufficiently in the cells. Luciferase activity was measured using Dual-Glo™ luciferase assay system (Promega Corp.) in accordance with the operation manual of the product. A luminescence value derived from firefly luciferase induced by test substance stimulation in each well of the 96-well plate was divided by a luminescence value derived from Renilla luciferase to calculate a value (fluc/hRluc) as a signal, which was then used in analysis. The signal under each transfection condition was normalized with the signal value (fluc/hRluc) under an odorant stimulation-free condition defined as 0% and the signal value (fluc/hRluc) by stimulation with 10 μM forskolin defined as 100%, and used as a response (%) in analysis.

Molecule	response of OR2T11 [1]	responsiveness to methyl mercaptan, dimethyl sulfide, dimethyl disulfide, or dimethyl trisulfide in the presence of a copper ion in comparison with that in the absence [2]
CCCS [1-propanethiol]	responds	–
CC(C)CS [2-methyl-1-propanethiol]	responds	–
CC(C)C(C)S (stereo not drawn) [3-methyl-2-butanethiol]	responds	–
CCCCS [1-butanethiol]	responds	–
CCCC(C)S (stereo not drawn) [2-pentanethiol]	responds	–
CC(C)S [2-propanethiol]	responds	–
CCC(C)S (stereo not drawn) [2-butanethiol]	responds	–
CCS [ethanethiol]	responds	–
SC1CCCC1 [cyclopentanethiol]	responds	–
CC(C)(C)S [2-methyl-2-propanethiol]	responds	–
B1	–	improved in responsiveness
B2	–	improved in responsiveness
B3	–	improved in responsiveness
B4	–	improved in responsiveness
B5	–	improved in responsiveness
B6	–	improved in responsiveness
B7	–	improved in responsiveness
B8	–	improved in responsiveness
